Laboratory results as given in patent US7947717B2 (priority 2008, dated 2011).
Like-named read-outs stand apart in the source and are kept apart here.

What was measured:
[1] = target: lethal factor (LF) (Bacillus anthracis, UniProt P15917); test: biochemical; assay type: biochemical
[2] = target: BoNT A (Clostridium botulinum, UniProt P0DPI0); test: biochemical
Chain of BoNT A (P0DPI0 whole entry, looked up): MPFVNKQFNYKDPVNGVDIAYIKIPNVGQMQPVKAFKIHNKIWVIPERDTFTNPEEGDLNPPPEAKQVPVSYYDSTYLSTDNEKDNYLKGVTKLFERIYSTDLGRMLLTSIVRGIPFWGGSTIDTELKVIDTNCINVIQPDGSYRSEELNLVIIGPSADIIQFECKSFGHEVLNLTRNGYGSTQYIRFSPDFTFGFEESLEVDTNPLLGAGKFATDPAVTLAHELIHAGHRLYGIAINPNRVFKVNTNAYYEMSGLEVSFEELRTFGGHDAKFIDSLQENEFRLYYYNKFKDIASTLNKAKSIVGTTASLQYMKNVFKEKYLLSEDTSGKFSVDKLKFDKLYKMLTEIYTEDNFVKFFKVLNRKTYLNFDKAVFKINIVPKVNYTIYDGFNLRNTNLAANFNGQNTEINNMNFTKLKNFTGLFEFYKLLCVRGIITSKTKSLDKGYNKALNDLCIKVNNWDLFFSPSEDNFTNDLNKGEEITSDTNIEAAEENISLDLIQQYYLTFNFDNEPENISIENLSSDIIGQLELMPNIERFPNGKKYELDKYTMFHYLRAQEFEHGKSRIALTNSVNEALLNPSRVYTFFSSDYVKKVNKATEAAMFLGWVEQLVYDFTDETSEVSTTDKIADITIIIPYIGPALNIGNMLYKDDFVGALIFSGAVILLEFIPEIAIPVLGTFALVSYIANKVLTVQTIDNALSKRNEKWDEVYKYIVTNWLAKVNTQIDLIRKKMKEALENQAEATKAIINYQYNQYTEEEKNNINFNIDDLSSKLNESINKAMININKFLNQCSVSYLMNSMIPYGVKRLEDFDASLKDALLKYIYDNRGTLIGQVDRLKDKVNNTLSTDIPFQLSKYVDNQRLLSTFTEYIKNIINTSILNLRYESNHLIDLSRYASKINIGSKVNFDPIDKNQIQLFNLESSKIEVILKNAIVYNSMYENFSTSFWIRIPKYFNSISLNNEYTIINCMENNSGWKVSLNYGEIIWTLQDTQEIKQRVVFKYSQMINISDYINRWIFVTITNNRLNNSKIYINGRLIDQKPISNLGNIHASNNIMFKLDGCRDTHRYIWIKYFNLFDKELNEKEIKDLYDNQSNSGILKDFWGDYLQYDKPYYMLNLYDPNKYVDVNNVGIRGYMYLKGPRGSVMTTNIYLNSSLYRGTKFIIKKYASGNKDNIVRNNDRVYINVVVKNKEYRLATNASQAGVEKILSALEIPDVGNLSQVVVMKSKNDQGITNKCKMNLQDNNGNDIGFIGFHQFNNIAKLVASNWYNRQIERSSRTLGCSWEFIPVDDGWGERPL

Chain of lethal factor (LF) (P15917 34-809 limits assumed): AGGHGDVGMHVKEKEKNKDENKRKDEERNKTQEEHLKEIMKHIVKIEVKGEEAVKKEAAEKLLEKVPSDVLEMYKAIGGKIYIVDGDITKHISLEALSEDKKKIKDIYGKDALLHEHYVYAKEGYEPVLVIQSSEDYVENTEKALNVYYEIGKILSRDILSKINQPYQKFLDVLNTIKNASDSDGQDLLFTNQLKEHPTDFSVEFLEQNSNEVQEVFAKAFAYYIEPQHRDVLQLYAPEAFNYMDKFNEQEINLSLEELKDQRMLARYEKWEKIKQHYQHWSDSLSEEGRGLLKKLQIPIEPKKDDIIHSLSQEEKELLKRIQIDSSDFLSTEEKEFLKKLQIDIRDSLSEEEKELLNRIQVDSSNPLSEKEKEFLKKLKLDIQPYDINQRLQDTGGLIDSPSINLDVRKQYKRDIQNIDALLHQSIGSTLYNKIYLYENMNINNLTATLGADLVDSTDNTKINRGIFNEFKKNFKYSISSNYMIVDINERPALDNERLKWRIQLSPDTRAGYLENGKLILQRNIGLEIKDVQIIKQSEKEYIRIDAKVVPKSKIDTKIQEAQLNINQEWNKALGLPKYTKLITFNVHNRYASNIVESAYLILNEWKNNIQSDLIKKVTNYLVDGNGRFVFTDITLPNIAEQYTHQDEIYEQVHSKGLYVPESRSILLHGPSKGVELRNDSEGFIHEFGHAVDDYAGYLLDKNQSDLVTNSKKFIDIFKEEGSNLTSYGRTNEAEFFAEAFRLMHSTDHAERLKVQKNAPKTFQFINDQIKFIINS

Structure (SMILES)	IC50 ([1]; pH 7.4, read-out: LF IC50) [µM]	IC50 [2] [µM]	other results
CN(CCOc1ccc(CC2SC(=O)NC2=O)cc1)c1ccccn1 (centres unmarked) [Compound 2, 5-(4-(2-(methyl(pyridin-2-yl)amino)ethoxy)benzyl)thiazolidine-2,4-dione, reference compound]			inhibition of LF, kinetic assay (in words) [1]: did not appreciably inhibit; inhibition of BoNT A, kinetic assay (in words) [2]: did not appreciably inhibit
O=C(O)CN1C(=O)/C(=C/c2ccc(-c3ccc([N+](=O)[O-])cc3Cl)o2)SC1=S [Compound 4]	2.1	11.8	
O=C(O)CC(C(=O)O)N1C(=O)/C(=C/c2ccc(-c3ccc(Br)cc3)o2)SC1=S (centres unmarked) [Compound 5]	3.98	51.6	
O=C(O)CCC(C(=O)O)N1C(=O)/C(=C/c2ccc(-c3ccc([N+](=O)[O-])cc3)o2)SC1=S (centres unmarked) [Compound 6]	4.91	148	
O=C(O)C(c1ccccc1)N1C(=O)/C(=C/c2ccc(-c3cccc(Cl)c3)o2)SC1=S (centres unmarked) [Compound 8]	4.34	127	
O=C1/C(=C/c2ccc(-c3cccc([N+](=O)[O-])c3)o2)SC(=S)N1CCS(=O)(=O)O [Compound 9, (Z)-2-(5-((5-(3-nitrophenyl)furan-2-yl)methylene)-4-oxo-2-thioxothiazolidin-3-yl)ethanesulfonic acid]	1.09		Ki [1]: 0.1 µM
O=C1/C(=C/c2ccc(-c3cccc(Cl)c3)o2)SC(=S)N1CCS(=O)(=O)O [Compound 10, (Z)-2-(5-((5-(3-chlorophenyl)furan-2-yl)methylene)-4-oxo-2-thioxothiazolidin-3-yl)ethanesulfonic acid]	1.7	19.9	
O=C1/C(=C/c2ccc(-c3ccc(Cl)c(Cl)c3)o2)SC(=S)N1CCS(=O)(=O)O [Compound 11, (Z)-2-(5-((5-(3,4-dichlorophenyl)furan-2-yl)methylene)-4-oxo-2-thioxothiazolidin-3-yl)ethanesulfonic acid]	1.78	11.1	
O=C1/C(=C/c2ccc(-c3ccc(Cl)cc3)o2)SC(=S)N1CCS(=O)(=O)O [Compound 12, (Z)-2-(5-((5-(4-chlorophenyl)furan-2-yl)methylene)-4-oxo-2-thioxothiazolidin-3-yl)ethanesulfonic acid]		> 200	
O=C(O)C(c1ccccc1)N1C(=O)/C(=C/c2ccc(-c3ccc(Cl)cc3Cl)o2)SC1=S (centres unmarked) [Compound 13]	1.2	> 200	Ki [1]: 1 µM
O=C1/C(=C/c2ccc(-c3cccc(Cl)c3Cl)o2)SC(=S)N1C1CCS(=O)(=O)C1 (centres unmarked) [Compound 14, (5Z)-5-{[5-(2,3-dichlorophenyl)-2-furyl]methylene}-3-(1,1-dioxidotetrahydrothien-3-yl)-2-thioxo-1,3-thiazolidin-4-one]		> 200	
O=C1/C(=C/c2ccc(-c3cc(Cl)ccc3Cl)o2)SC(=S)N1CC1CCCO1 (centres unmarked) [Compound 16, (Z)-5-((5-(2,5-dichlorophenyl)furan-2-yl)methylene)-3-((tetrahydrofuran-2-yl)methyl)-2-thioxothiazolidin-4-one]		> 50	
Cc1nc(/C=C2\SC(=S)N(CC(=O)O)C2=O)c(C)o1 [Compound 17, (Z)-2-(5-((2,5-dimethyloxazol-4-yl)methylene)-4-oxo-2-thioxothiazolidin-3-yl)acetic acid]	100	> 200	
CC(C)(C)OC(=O)N1CCC(c2nc(/C=C3\SC(=S)N(CC(=O)O)C3=O)cs2)CC1 [Compound 18, (Z)-2-(5-((2-(1-(tert-butoxycarbonyl)piperidin-4-yl)thiazol-4-yl)methylene)-4-oxo-2-thioxothiazolidin-3-yl)acetic acid]	20	176	
Cc1nc(-c2ccccc2)c(/C=C2\SC(=S)N(CC(=O)O)C2=O)s1 [Compound 19, (Z)-2-(5-((2-methyl-4-phenylthiazol-5-yl)methylene)-4-oxo-2-thioxothiazolidin-3-yl)acetic acid]	41	> 200	
O=C(O)CN1C(=O)/C(=C/c2c[nH]nc2-c2ccc(C(F)(F)F)cc2)SC1=S [Compound 27, (Z)-2-(4-oxo-2-thioxo-5-((3-(4-(trifluoromethyl)phenyl)-1H-pyrazol-4-yl)methylene)thiazolidin-3-yl)acetic acid]		> 200	IC50 [1]: 24.6 µM
O=C(O)CN1C(=O)/C(=C/c2cc(-c3ccc(Cl)cc3)[nH]n2)SC1=S [Compound 28]		> 200	IC50 [1]: > 100 µM
O=C(O)CN1C(=O)/C(=C/c2cn(-c3ccccc3)nc2-c2cccs2)SC1=S [Compound 29, (Z)-2-(4-oxo-5-((1-phenyl-3-(thiophen-2-yl)-1H-pyrazol-4-yl)methylene)-2-thioxothiazolidin-3-yl)acetic acid]	3.07	160	
O=C(O)CN1C(=O)/C(=C/c2cn(-c3ccccc3)nc2-c2ccccc2)SC1=S [Compound 30, (Z)-2-(5-((1,3-diphenyl-1H-pyrazol-4-yl)methylene)-4-oxo-2-thioxothiazolidin-3-yl)acetic acid]	6.25	111	

Structure (SMILES)	IC50 ([1]; pH 7.4, read-out: LF IC50) [µM]	IC50 [2] [µM]	other results
O=C(O)CN1C(=O)/C(=C/c2cn(-c3ccccc3)nc2-c2ccc(S(=O)(=O)N3CCOCC3)cc2)SC1=S [Compound 31]	4.26	> 200	
COc1ccc(-c2nn(-c3ccccc3)cc2/C=C2\SC(=S)N(CC(=O)O)C2=O)cc1C [Compound 36, (Z)-2-(5-((3-(4-methoxy-3-methylphenyl)-1-phenyl-1H-pyrazol-4-yl)methylene)-4-oxo-2-thioxothiazolidin-3-yl)acetic acid]	3.58	127	
CCOc1ccc(-c2nn(-c3ccccc3)cc2/C=C2\SC(=S)N(CC(=O)O)C2=O)c(C)c1 [Compound 37, (Z)-2-(5-((3-(4-ethoxy-2-methylphenyl)-1-phenyl-1H-pyrazol-4-yl)methylene)-4-oxo-2-thioxothiazolidin-3-yl)acetic acid]	4.87	130	
O=C1/C(=C/c2cn(-c3ccccc3)nc2-c2ccc(S(=O)(=O)N3CCOCC3)cc2)SC(=S)N1CCS(=O)(=O)O [Compound 42, (Z)-2-(5-((3-(4-(morpholinosulfonyl)phenyl)-1-phenyl-1H-pyrazol-4-yl)methylene)-4-oxo-2-thioxothiazolidin-3-yl)ethanesulfonic acid]	1.86	85	
O=C1/C(=C/c2cn(-c3ccccc3)nc2-c2ccc(S(=O)(=O)N3CCCCC3)cc2)SC(=S)N1CCS(=O)(=O)O [Compound 43, (Z)-2-(4-oxo-5-((1-phenyl-3-(4-(piperidin-1-ylsulfonyl)phenyl)-1H-pyrazol-4-yl)methylene)-2-thioxothiazolidin-3-yl)ethanesulfonic acid]	2.07	20.1	
O=C1/C(=C/c2cn(-c3ccccc3)nc2-c2ccccc2)SC(=S)N1C1CCS(=O)(=O)C1 (centres unmarked) [Compound 44, 3-(1,1-Dioxo-tetrahydro-thiophen-3-yl)-5-[1-(1,3-diphenyl-1H-pyrazol-4-yl)-meth-(Z)-ylidene]-2-thioxo-thiazolidin-4-one]		> 200	
O=C1/C(=C/c2cn(-c3ccccc3)nc2-c2ccc(Cl)cc2)SC(=S)N1C1CCS(=O)(=O)C1 (centres unmarked) [Compound 45, 5-[1-[3-(4-Chloro-phenyl)-1-phenyl-1H-pyrazol-4-yl]-meth-(Z)-ylidene]-3-(1,1-dioxo-tetrahydro-thiophen-3-yl)-2-thioxo-thiazolidin-4-one]		> 200	
CCOc1ccc(-c2nn(-c3ccccc3)cc2/C=C2\SC(=S)N(CC(=O)O)C2=O)cc1F [Compound 46, (Z)-2-(5-((3-(4-ethoxy-3-fluorophenyl)-1-phenyl-1H-pyrazol-4-yl)methylene)-4-oxo-2-thioxothiazolidin-3-yl)acetic acid]	3.45	> 200	
O=C(O)CN1C(=O)/C(=C/c2ccc(-c3ccccc3)cc2)SC1=S [Compound 49, (Z)-2-(5-(4-phenylbenzylidene)-4-oxo-2-thioxothiazolidin-3-yl)acetic acid]	6.2	54.6	
O=C(O)CN1C(=O)/C(=C/c2cccc(N3CCCC3)c2)SC1=S [Compound 50, (Z)-2-(5-(3-(pyrrolidin-1-yl)benzylidene)-4-oxo-2-thioxothiazolidin-3-yl)acetic acid]	28.1	> 200	
CN1CCCN(c2ccc(/C=C3\SC(=S)N(CC(=O)O)C3=O)cc2)CC1 [Compound 51]		> 50	
O=C(O)CN1C(=O)/C(=C/c2cccc(-n3cccn3)c2)SC1=S [Compound 52, (Z)-2-(5-(3-(1H-pyrazol-1-yl)benzylidene)-4-oxo-2-thioxothiazolidin-3-yl)acetic acid]	27.9	> 200	
O=C(O)CN1C(=O)/C(=C/c2ccc3c(c2)OCO3)SC1=S [Compound 53, (Z)-2-(5-(benzo[d][1,3]dioxol-5-ylmethylene)-4-oxo-2-thioxothiazolidin-3-yl)acetic acid]	83.3	> 200	
O=C(O)CN1C(=O)/C(=C/c2cccc3c2oc2ccccc23)SC1=S [Compound 55, (Z)-2-(5-(dibenzofuran-6-ylmethylene)-4-oxo-2-thioxothiazolidin-3-yl)acetic acid]	2.96	160	
O=C(O)CN1C(=O)/C(=C/c2cccc(Br)n2)SC1=S [Compound 56, (Z)-2-(5-((6-bromopyridin-2-yl)methylene)-4-oxo-2-thioxothiazolidin-3-yl)acetic acid]	58	> 200	
O=C(O)CN1C(=O)/C(=C/c2csc3ccccc23)SC1=S [Compound 57, (Z)-2-(5-(benzo[b]thiophen-3-ylmethylene)-4-oxo-2-thioxothiazolidin-3-yl)acetic acid]	13	> 200	
O=C(O)CN1C(=O)/C(=C/c2cc3nccnc3s2)SC1=S [Compound 59]	24.9	> 200	
O=C(O)CN1C(=O)/C(=C/c2c[nH]c3ccccc23)SC1=S [Compound 60, (Z)-2-(5-((1H-indol-3-yl)methylene)-4-oxo-2-thioxothiazolidin-3-yl)acetic acid]	38.7	> 200	
O=C(O)CN1C(=O)/C(=C/c2c[nH]c3ccc(Br)cc23)SC1=S [Compound 61, (Z)-2-(5-((5-bromo-1H-indol-3-yl)methylene)-4-oxo-2-thioxothiazolidin-3-yl)acetic acid]	7.04	> 200	
